The results in this text go back to patent US4440779A, “Tricyclic derivatives of substituted pyrrole acids as analgesic and anti-inflammatory agents” (Merck & Co., Inc., priority 1982, dated 1984).

Series [1] relates to edema induced by carragenin in rat foot. The series can be described thus: rat foot edema assay (carragenin-induced edema, C.F.E.). The class given is in vivo, rat (Sprague Dawley). The note with it: 1 h before carragenin, read at 3 h; for inhibition in vivo at 3 mg/kg: 3 mg/kg oral; for inhibition in vivo at 10 mg/kg: 10 mg/kg oral; for inhibition in vivo at 20 mg/kg: 20 mg/kg oral; for inhibition in vivo at 30 mg/kg: 30 mg/kg oral. As for the experimental part: The rat foot edema assay for determining anti-inflammatory activity is based on the ability of the compounds of Formula I to inhibit the edema induced by the injection of an inflammatory (phlogistic) agent into the tissues of the foot of a rat. Several groups of six male rats (Sprague Dawley strain, 150±30 g each) are given orally the compounds to be tested one hour before 0.1 ml of a 1% suspension of carragenin in 0.5% methocel is injected into the planar surface of each rat's right hind paws. Immediately and again three hours later, the foot volume is measured and recorded. The difference between the initial and final volumes is a measurement of the edema produced. Usually the compounds to be tested are suspended or dissolved in 0.5% methocel, and their activities measured against that produced by a known anti-inflammatory agent e.g., zomepirac (U.S. Pat. No. 3,952,012) according to standard procedure. The activity of a tested compound is also compared with that produced by a "control" rat which receives only the methocel solution. A test of 3 mg/kg, 10 mg/kg plus one dose of 30 mg/kg are usually given.

Series [2] has as its system gastric mucosa. The series can be described thus: Gastric Hemorrhage Lesion Formation Assay (GHLF). The class given is in vivo, rat (Sprague-Dawley). The settings on record: fasted, 4 h. How it is done:
In other words, they induce less gastric irritation than Zompirac. The GHLF test is conducted according to the following procedure:
Rats (Sprague-Dawley, Males, 120-180 gm) are fasted overnight and dosed orally with drug suspended in 0.5% methylcellulose. The drug concentration is adjusted so that each animal received 1.0 ml/100 gm body weight. Four hours later the animals are killed by asphixiation in carbon dioxide, the stomachs removed, cut open and everted. The mucosal lining is washed and examined under 3X magnification. The lesions are identified as perforations of the gastric mucosa, many of which perforate right through the wall of the stomach.
The results are expressed in two ways, the average number of lesions per stomach, and the number of animals in the group showing at least one lesion.

In series [1], `Cc1ccc2c(c1)OCc1cc(CC(=O)O)n(C)c1C2=O` [7-CH3 / OCH2 / H, 1,7-dimethyl-4,10-dihydro-10-oxo-1H[1]benzoxepino[4,3-b]-pyrrole-2-acetic acid] registered an inhibition in vivo at 3 mg/kg of 32.1%, an inhibition in vivo at 10 mg/kg of 39.9% and an inhibition in vivo at 20 mg/kg of 42.6%. Besides, in series [2] (30 mg/kg oral), the Animals with lesions is 0/6 and the “Ave. lesions per animal” value was 0. Besides, in series [2] (60 mg/kg oral), the Animals with lesions is recorded as 1/6 and the “Ave. lesions per animal” value was 0.16. In series [2] (90 mg/kg oral), the Animals with lesions is listed as 2/6 and the “Ave. lesions per animal” value was 0.33. Also, in series [2] (120 mg/kg oral), the Animals with lesions is recorded as 4/6 and the “Ave. lesions per animal” value came to 3.3.
In series [1], `CC(C(=O)O)c1cc2c(n1C)C(=O)c1ccc(Cl)cc1CC2` (stereo not drawn) [7-Cl / CH2CH2 / CH3, 1,4,5,10-Tetrahydro-7-chloro-1,α-dimethyl-10-oxobenzocyclohepta[1,2-b]pyrrole-2-acetic acid] registered an inhibition in vivo at 20 mg/kg of 36.8% and an inhibition in vivo at 30 mg/kg of 59%.
With `Cn1c(CC(=O)O)cc2c1C(=O)c1ccc(Cl)cc1CC2` [7-Cl / CH2CH2 / H], in series [1], the inhibition in vivo at 3 mg/kg is 29.9%, the inhibition in vivo at 10 mg/kg turned out to be 41.5% and the inhibition in vivo at 30 mg/kg is 57.5%. Moreover, in series [2] (100 mg/kg oral), the Animals with lesions is given as 1/5 and the “Ave. lesions per animal” value is 0.2. Besides, in series [2] (300 mg/kg oral), the Animals with lesions is 0/5 and the “Ave. lesions per animal” value is given as 0. In series [2] (600 mg/kg oral), the Animals with lesions is on record as 4/5 and the “Ave. lesions per animal” value is listed as 1.8.
For the compound `Cn1c(CC(=O)O)cc2c1C(=O)c1ccc(Cl)cc1CO2` [7-Cl / CH2O / H], the inhibition in vivo at 20 mg/kg in series [1] amounted to 50%.
`CC(C(=O)O)c1cc2c(n1C)C(=O)c1ccc(Cl)cc1OC2` (stereo not shown) [7-Cl / OCH2 / CH3]: the inhibition in vivo at 30 mg/kg in series [1] was determined as 60%.
For `Cn1c(CC(=O)O)cc2c1C(=O)c1ccc(Cl)cc1OC2` [7-Cl / OCH2 / H, 7-chloro-4,10-dihydro-1-methyl-10-oxo-1H-[1]benzoxepino[4,3-b]pyrrole-2-acetic acid], in series [1], 3 mg/kg produced 46% inhibition in vivo, at 10 mg/kg the inhibition in vivo was 64% and the inhibition in vivo at 30 mg/kg was found to be 54%. For the same compound, in series [2] (60 mg/kg oral), the Animals with lesions is reported as 0/6 and the “Ave. lesions per animal” value was determined as 0. In series [2] (90 mg/kg oral), the Animals with lesions is 5/6 and the “Ave. lesions per animal” value is listed as 5.0.
In series [1], `Cn1c(CC(=O)O)cc2c1C(=O)c1ccc(Cl)cc1SC2` [7-Cl / SCH2 / H, 7-Chloro-4,10-dihydro-1-methyl-10-oxo-1H-[1]benzothiepino[4,3-b]pyrrole-2-acetic acid] yielded an inhibition in vivo at 30 mg/kg of 51%.
In series [1], `Cn1c(CC(=O)O)cc2c1C(=O)c1ccc(F)cc1OC2` [7-F / OCH2 / H] displayed an inhibition in vivo at 10 mg/kg of 31% and an inhibition in vivo at 30 mg/kg of 40%.
In series [1], `COc1ccc2c(c1)OCc1cc(CC(=O)O)n(C)c1C2=O` [7-OCH3 / OCH2 / H, 7-methoxy-4,10-dihydro-1-methyl-10-oxo-1H[1]-benzoxepino[4,3-b]pyrrole-2-acetic acid] yielded an inhibition in vivo at 3 mg/kg of 44% and an inhibition in vivo at 30 mg/kg of 61%. Besides, in series [2] (90 mg/kg oral), the Animals with lesions is 2/6 and the “Ave. lesions per animal” value is 1.0. Further, in series [2] (120 mg/kg oral), the Animals with lesions is 4/6 and the “Ave. lesions per animal” value was determined as 4.0.

One may read the inhibition in vivo as the change of the read-out against control, counted positive when it falls. Read a high inhibition in vivo as a response far below the control.
